Measured values published in patent publication US11739098B2 (BRISTOL-MYERS SQUIBB COMPANY, priority 2017, dated 2023).

Tests used:
Assay type in all cases: cell-based
[1] = molecular target: T1, human TLR8 (Homo sapiens, UniProt Q9NR97); test: TLR8 inhibition reporter assay (HEK-Blue cells, SEAP reporter, R848 stimulation); details: HEK-Blue cells overexpressing human TLR8, SEAP reporter, R848 15.9 μM
T1 construct: host or cells: HEK-Blue cells (HEK293-derived reporter line)
T1 sequence (Q9NR97 27-1041): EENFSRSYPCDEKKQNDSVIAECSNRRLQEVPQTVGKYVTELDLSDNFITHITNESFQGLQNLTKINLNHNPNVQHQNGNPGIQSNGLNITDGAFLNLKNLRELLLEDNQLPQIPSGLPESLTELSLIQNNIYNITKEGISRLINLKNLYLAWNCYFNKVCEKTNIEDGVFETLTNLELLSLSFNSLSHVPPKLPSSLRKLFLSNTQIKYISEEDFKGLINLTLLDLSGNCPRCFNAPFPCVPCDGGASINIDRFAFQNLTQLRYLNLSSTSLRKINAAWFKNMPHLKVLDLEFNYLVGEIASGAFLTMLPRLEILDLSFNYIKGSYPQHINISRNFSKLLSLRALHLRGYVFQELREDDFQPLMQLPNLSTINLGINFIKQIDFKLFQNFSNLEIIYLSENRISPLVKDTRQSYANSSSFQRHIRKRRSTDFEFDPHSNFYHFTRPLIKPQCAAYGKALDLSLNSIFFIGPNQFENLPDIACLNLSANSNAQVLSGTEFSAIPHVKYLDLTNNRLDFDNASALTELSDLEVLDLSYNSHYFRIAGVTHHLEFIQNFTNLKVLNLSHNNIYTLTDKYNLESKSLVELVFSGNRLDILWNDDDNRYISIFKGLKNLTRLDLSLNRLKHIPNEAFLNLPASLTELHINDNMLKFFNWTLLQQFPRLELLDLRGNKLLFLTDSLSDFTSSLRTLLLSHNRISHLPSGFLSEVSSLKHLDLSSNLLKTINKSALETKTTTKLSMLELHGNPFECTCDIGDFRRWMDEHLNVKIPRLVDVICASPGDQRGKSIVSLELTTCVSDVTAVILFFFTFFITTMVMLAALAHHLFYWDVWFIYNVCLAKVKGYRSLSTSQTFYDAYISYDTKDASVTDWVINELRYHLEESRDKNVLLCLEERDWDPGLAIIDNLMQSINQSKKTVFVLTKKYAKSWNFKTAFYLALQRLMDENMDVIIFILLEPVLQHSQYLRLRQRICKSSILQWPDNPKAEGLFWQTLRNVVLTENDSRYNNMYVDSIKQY
Summary of the method: (§1)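 After 22 h at 37 °C, SEAP secretion was measured from human TLR7-, TLR8- or TLR9-expressing HEK-Blue reporter cells given compound (0.05 nM–50 μM) 30 min before agonist: 7.5 μM gardiquimod, 15.9 μM R848 or 5 nM ODN2006 respectively. Percent inhibition referenced to agonist-plus-DMSO and known-inhibitor wells.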

[2] = molecular target: T2, human TLR7 (Homo sapiens, UniProt Q9NYK1); test: TLR7 inhibition reporter assay (HEK-Blue cells, SEAP reporter, gardiquimod stimulation); details: HEK-Blue cells overexpressing human TLR7, SEAP reporter, gardiquimod 7.5 μM
T2 construct: host or cells: HEK-Blue cells (HEK293-derived reporter line)
T2 sequence (Q9NYK1 27-1049): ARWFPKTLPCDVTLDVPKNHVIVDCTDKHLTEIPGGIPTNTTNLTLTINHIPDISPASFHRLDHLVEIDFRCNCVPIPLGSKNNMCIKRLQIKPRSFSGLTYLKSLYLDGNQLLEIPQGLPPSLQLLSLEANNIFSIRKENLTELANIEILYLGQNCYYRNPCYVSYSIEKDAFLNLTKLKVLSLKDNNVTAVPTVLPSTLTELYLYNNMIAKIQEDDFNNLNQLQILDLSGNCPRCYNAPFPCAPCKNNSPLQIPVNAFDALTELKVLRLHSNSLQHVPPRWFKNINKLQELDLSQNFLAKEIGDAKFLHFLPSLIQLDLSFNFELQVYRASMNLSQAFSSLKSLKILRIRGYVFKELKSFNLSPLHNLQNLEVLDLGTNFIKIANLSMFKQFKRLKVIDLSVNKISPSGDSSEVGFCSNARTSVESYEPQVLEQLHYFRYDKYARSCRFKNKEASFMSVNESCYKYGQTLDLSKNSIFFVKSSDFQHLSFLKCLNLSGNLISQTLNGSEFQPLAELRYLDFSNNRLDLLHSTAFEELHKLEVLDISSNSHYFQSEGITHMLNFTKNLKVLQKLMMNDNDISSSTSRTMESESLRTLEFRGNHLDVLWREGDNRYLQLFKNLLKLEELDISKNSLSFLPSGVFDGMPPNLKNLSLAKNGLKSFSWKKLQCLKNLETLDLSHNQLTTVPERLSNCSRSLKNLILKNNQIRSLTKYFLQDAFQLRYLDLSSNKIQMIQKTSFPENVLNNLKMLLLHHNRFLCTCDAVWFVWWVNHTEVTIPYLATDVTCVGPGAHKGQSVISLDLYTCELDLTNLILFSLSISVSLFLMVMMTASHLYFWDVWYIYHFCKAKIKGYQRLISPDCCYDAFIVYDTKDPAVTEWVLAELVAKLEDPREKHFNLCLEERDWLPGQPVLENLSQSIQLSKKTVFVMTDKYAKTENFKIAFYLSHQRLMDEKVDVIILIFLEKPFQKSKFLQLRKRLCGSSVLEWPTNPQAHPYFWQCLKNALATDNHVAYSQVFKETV
Summary of the method: as §1

[3] = molecular target: T3, human TLR9 (Homo sapiens, UniProt Q9NR96); test: TLR9 inhibition reporter assay (HEK-Blue cells, SEAP reporter, ODN2006 stimulation); details: HEK-Blue cells overexpressing human TLR9, SEAP reporter, ODN2006 5 nM
T3 construct: host or cells: HEK-Blue cells (HEK293-derived reporter line)
T3 sequence (Q9NR96 26-1032): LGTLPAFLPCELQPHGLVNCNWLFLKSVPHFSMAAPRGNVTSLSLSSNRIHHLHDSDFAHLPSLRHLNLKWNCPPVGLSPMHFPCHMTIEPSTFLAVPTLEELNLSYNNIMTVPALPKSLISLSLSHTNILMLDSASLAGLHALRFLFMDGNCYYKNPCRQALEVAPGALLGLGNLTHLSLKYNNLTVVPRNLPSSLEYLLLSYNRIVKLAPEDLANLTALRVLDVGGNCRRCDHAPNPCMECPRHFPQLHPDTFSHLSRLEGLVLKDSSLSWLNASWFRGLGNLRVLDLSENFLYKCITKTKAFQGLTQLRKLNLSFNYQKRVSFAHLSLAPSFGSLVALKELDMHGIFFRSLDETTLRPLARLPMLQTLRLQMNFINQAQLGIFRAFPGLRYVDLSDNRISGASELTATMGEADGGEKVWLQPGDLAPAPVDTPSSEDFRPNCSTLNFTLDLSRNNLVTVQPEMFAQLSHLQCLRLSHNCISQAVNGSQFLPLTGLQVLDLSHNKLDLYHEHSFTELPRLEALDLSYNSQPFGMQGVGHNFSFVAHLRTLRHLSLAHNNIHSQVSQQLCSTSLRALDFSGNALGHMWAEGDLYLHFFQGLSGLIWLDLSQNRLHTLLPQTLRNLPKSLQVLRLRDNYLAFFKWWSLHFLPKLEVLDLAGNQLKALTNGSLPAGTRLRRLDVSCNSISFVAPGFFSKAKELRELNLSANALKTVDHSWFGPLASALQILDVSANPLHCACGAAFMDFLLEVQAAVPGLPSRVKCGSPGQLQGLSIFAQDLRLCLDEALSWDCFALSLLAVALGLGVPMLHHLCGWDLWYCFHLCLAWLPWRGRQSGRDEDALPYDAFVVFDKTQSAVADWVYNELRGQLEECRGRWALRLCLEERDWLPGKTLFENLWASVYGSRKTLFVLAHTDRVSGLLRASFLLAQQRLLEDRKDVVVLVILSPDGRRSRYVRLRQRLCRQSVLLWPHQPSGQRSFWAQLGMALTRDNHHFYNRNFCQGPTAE
Summary of the method: as §1

Row | SMILES | IC50 [1] | IC50 [2] | IC50 [3]
1 | CNCC(=O)N1CCC(c2ccc3[nH]c(-c4cc(C)c5nccn5c4)c(C(C)C)c3c2)CC1 [Example 557, 1-(4-(3-isopropyl-2-(8-methylimidazo[1,2-a]pyridin-6-yl)-1H-indol-5-yl)piperidin-1-yl)-2-(methylamino)ethan-1-one] | < 100 nM | < 100 nM | 100 to 1000 nM
2 | Cc1cc2[nH]c(-c3ccnc4[nH]ncc34)c(C(C)C)c2cc1C1CCN(C2CCN(C(C)C)CC2)CC1 [Example 826, 4-(3-isopropyl-5-(1′-isopropyl-[1,4′-bipiperidin]-4-yl)-6-methyl-1H-indol-2-yl)-1H-pyrazolo[3,4-b]pyridine] | < 100 nM | < 100 nM | 100 to 1000 nM
3 | CCOc1cc(-c2[nH]c3ccc(C4CCN(CC(=O)NC)CC4)cc3c2C(C)C)cc2nc(C)nn12 [Example 349, 2-(4-(2-(5-ethoxy-2-methyl-[1,2,4]triazolo[1,5-a]pyridin-7-yl)-3-isopropyl-1H-indol-5-yl)piperidin-1-yl)-N-methylacetamide] | < 100 nM | < 100 nM | 1000 to 50000 nM
4 | CC(C)c1c(-c2ccnc3[nH]ncc23)[nH]c2ccc(C3CCN(C(=O)Cc4c[nH]cn4)CC3)cc12 [Example 612, 2-(1H-imidazol-4-yl)-1-(4-(3-isopropyl-2-(1H-pyrazolo[3,4-b]pyridin-4-yl)-1H-indol-5-yl)piperidin-1-yl)ethan-1-one] | < 100 nM | < 100 nM | 1000 to 50000 nM
5 | CC(C)c1c(-c2ccc3[nH]ncc3c2)[nH]c2ccc(C3CCNCC3)cc12 [Example 169, 5-(3-isopropyl-5-(piperidin-4-yl)-1H-indol-2-yl)-1H-indazole] | 1000 to 50000 nM | 100 to 1000 nM | 1000 to 50000 nM
6 | CC(C)c1c(-c2ccnc3cnn(C)c23)[nH]c2ccc(C3CCNCC3)cc12 [Example 43, 7-(3-isopropyl-5-(piperidin-4-yl)-1H-indol-2-yl)-1-methyl-1H-pyrazolo[4,3-b]pyridine] | < 100 nM | 100 to 1000 nM | 1000 to 50000 nM
7 | CCc1c(-c2ccnc3[nH]ncc23)[nH]c2ccc(C3CCNCC3O)cc12 (stereo not drawn) [Example 175, 4-(3-ethyl-2-(1H-pyrazolo[3,4-b]pyridin-4-yl)-1H-indol-5-yl)piperidin-3-ol] | 100 to 1000 nM | 100 to 1000 nM | 1000 to 50000 nM
8 | Cc1c(-c2[nH]c3ccc(C4CCN(CC(=O)N(C)C)CC4)cc3c2C(C)C)cn2nnnc2c1C [Example 309, 2-(4-(2-(7,8-dimethyltetrazolo[1,5-a]pyridin-6-yl)-3-isopropyl-1H-indol-5-yl)piperidin-1-yl)-N,N-dimethylacetamide] | < 100 nM | < 100 nM | 1000 to 50000 nM

Continued, values first:

Row | IC50 [1] | IC50 [2] | IC50 [3] | SMILES
9 | < 100 nM | < 100 nM | 1000 to 50000 nM | Cc1cc(-c2[nH]c3ccc(C4CCN(C(=O)CN(C)C)CC4)cc3c2C(C)C)cc2ccnn12 [Example 570, 2-(dimethylamino)-1-(4-(3-isopropyl-2-(7-methylpyrazolo[1,5-a]pyridin-5-yl)-1H-indol-5-yl)piperidin-1-yl)ethan-1-one]
10 | 1000 to 50000 nM | 100 to 1000 nM | 1000 to 50000 nM | CNC(=O)CN1CCC(c2ccc3[nH]c(-c4cc(OC)n5cc(C)nc5c4)c(C(C)C)c3c2)CC1 [Example 335, 2-(4-(3-isopropyl-2-(5-methoxy-2-methylimidazo[1,2-a]pyridin-7-yl)-1H-indol-5-yl)piperidin-1-yl)-N-methylacetamide]
11 | < 100 nM | < 100 nM | 1000 to 50000 nM | Cc1cc(-c2[nH]c3ccc(C4CCN(CC(=O)N(C)C)CC4)cc3c2C(C)C)cc2ccnn12 [Example 442, 2-(4-(3-isopropyl-2-(7-methylpyrazolo[1,5-a]pyridin-5-yl)-1H-indol-5-yl)piperidin-1-yl)-N,N-dimethylacetamide]
12 | < 100 nM | < 100 nM | 1000 to 50000 nM | CNC(=O)CN1CCC(c2ccc3[nH]c(-c4cc(C)n5nccc5c4)c(C(C)C)c3c2)CC1 [Example 443, 2-(4-(3-isopropyl-2-(7-methylpyrazolo[1,5-a]pyridin-5-yl)-1H-indol-5-yl)piperidin-1-yl)-N-methylacetamide]
